Data as given in PubChem BioAssay (NCI).
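Five concentrations, 48 hours, 96-well plates. Abbreviation: GI50, concentration required for 50% inhibition of growth. TGI denotes the concentration required for complete inhibition of growth.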

What was measured:
Assay in all cases: inhibition of tumour cell growth, NCI panel, 48 h
SN12C renal = test system: SN12C renal
SW-620 colon = test system: SW-620 colon
K-562 leukemia = test system: K-562 leukemia
HS 578T breast = test system: HS 578T breast
A498 renal = test system: A498 renal
BT-549 breast = test system: BT-549 breast
KM12 colon = test system: KM12 colon
MALME-3M melanoma = test system: MALME-3M melanoma
PC-3 prostate = test system: PC-3 prostate
SF-295 CNS = test system: SF-295 CNS
786-0 renal = test system: 786-0 renal
M14 melanoma = test system: M14 melanoma
SK-MEL-5 melanoma = test system: SK-MEL-5 melanoma
CCRF-CEM leukemia = test system: CCRF-CEM leukemia
NCI/ADR-RES ovarian = test system: NCI/ADR-RES ovarian
HOP-62 NSCLC = test system: HOP-62 NSCLC
COLO 205 colon = test system: COLO 205 colon
RPMI-8226 leukemia = test system: RPMI-8226 leukemia
NCI-H460 lung = test system: NCI-H460 lung
RXF 393 renal = test system: RXF 393 renal
NCI-H522 lung = test system: NCI-H522 lung
OVCAR-5 ovarian = test system: OVCAR-5 ovarian
MDA-MB-435 = test system: MDA-MB-435
TK-10 renal = test system: TK-10 renal
LOX IMVI melanoma = test system: LOX IMVI melanoma
HL-60(TB) leukemia = test system: HL-60(TB) leukemia
SK-MEL-2 melanoma = test system: SK-MEL-2 melanoma
SK-OV-3 ovarian = test system: SK-OV-3 ovarian
HCT-116 colon = test system: HCT-116 colon
HT29 colon = test system: HT29 colon
HCC-2998 colon = test system: HCC-2998 colon
OVCAR-8 ovarian = test system: OVCAR-8 ovarian
DU-145 prostate = test system: DU-145 prostate
NCI-H226 lung = test system: NCI-H226 lung
OVCAR-3 ovarian = test system: OVCAR-3 ovarian
SNB-19 CNS = test system: SNB-19 CNS
U251 CNS = test system: U251 CNS
SF-268 CNS = test system: SF-268 CNS
NCI-H23 lung = test system: NCI-H23 lung
MOLT-4 leukemia = test system: MOLT-4 leukemia
UACC-257 melanoma = test system: UACC-257 melanoma
EKVX NSCLC = test system: EKVX NSCLC
MDA-MB-231 breast = test system: MDA-MB-231 breast
CAKI-1 renal = test system: CAKI-1 renal
SF-539 CNS = test system: SF-539 CNS
SR leukemia = test system: SR leukemia
HCT-15 colon = test system: HCT-15 colon
SNB-75 CNS = test system: SNB-75 CNS
UO-31 renal = test system: UO-31 renal
IGROV1 ovarian = test system: IGROV1 ovarian
UACC-62 melanoma = test system: UACC-62 melanoma
OVCAR-4 ovarian = test system: OVCAR-4 ovarian
SK-MEL-28 melanoma = test system: SK-MEL-28 melanoma
T-47D breast = test system: T-47D breast
A549 NSCLC = test system: A549 NSCLC
HOP-92 NSCLC = test system: HOP-92 NSCLC
ACHN renal = test system: ACHN renal

## N#Cc1c(NC(=O)c2cccc(C(F)(F)F)c2)sc2c1CCC(=O)C2
SN12C renal
  GI50: 851 nM
  TGI: 4050 nM
SW-620 colon
  GI50: 300 nM
  TGI: 1830 nM
K-562 leukemia
  GI50: 217 nM
HS 578T breast
  GI50: 542 nM
  TGI: 3770 nM
A498 renal
  GI50: 1710 nM
  TGI: 5500 nM
BT-549 breast
  GI50: 419 nM
  TGI: 2060 nM
KM12 colon
  GI50: 477 nM
  TGI: 1950 nM
MALME-3M melanoma
  GI50: 326 nM
  TGI: 1120 nM
PC-3 prostate
  GI50: 292 nM
  TGI: 1410 nM
SF-295 CNS
  GI50: 845 nM
  TGI: 3880 nM
786-0 renal
  GI50: 716 nM
  TGI: 5850 nM
M14 melanoma
  GI50: 525 nM
  TGI: 2220 nM
SK-MEL-5 melanoma
  GI50: 1300 nM
  TGI: 2650 nM
CCRF-CEM leukemia
  GI50: 262 nM
  TGI: > 100000 nM
NCI/ADR-RES ovarian
  GI50: 1620 nM
  TGI: 7770 nM
HOP-62 NSCLC
  GI50: 1760 nM
  TGI: > 26400 nM
COLO 205 colon
  GI50: 289 nM
  TGI: 809 nM
RPMI-8226 leukemia
  GI50: 239 nM
  TGI: 869 nM
NCI-H460 lung
  GI50: 1190 nM
RXF 393 renal
  GI50: 391 nM
  TGI: 1450 nM
NCI-H522 lung
  GI50: 315 nM
  TGI: 1650 nM
OVCAR-5 ovarian
  GI50: 1140 nM
  TGI: 3970 nM
MDA-MB-435
  GI50: 651 nM
  TGI: 2110 nM
TK-10 renal
  GI50: 543 nM
  TGI: 2340 nM
LOX IMVI melanoma
  GI50: 369 nM
  TGI: 1680 nM
HL-60(TB) leukemia
  GI50: 576 nM
  TGI: 3560 nM
SK-MEL-2 melanoma
  GI50: 2300 nM
  TGI: 6350 nM
SK-OV-3 ovarian
  GI50: 2300 nM
  TGI: 6190 nM
HCT-116 colon
  GI50: 336 nM
  TGI: 1560 nM
HT29 colon
  GI50: 367 nM
  TGI: 2470 nM
HCC-2998 colon
  GI50: 1610 nM
  TGI: 3370 nM
OVCAR-8 ovarian
  GI50: 1150 nM
  TGI: 6970 nM
DU-145 prostate
  GI50: 3300 nM
  TGI: > 100000 nM
NCI-H226 lung
  GI50: 1550 nM
  TGI: 5020 nM
OVCAR-3 ovarian
  GI50: 418 nM
  TGI: 1520 nM
SNB-19 CNS
  GI50: 445 nM
  TGI: 2360 nM
U251 CNS
  GI50: 352 nM
  TGI: 1580 nM
SF-268 CNS
  GI50: 910 nM
  TGI: 5900 nM
NCI-H23 lung
  GI50: 379 nM
  TGI: 2880 nM
MOLT-4 leukemia
  GI50: 350 nM
  TGI: > 32200 nM
UACC-257 melanoma
  GI50: 728 nM
  TGI: 3850 nM
EKVX NSCLC
  GI50: 1670 nM
  TGI: 4260 nM
MDA-MB-231 breast
  GI50: 1390 nM
  TGI: 3310 nM
CAKI-1 renal
  GI50: 287 nM
  TGI: 1000 nM
SF-539 CNS
  GI50: 329 nM
  TGI: 1230 nM
SR leukemia
  GI50: 347 nM
  TGI: > 31800 nM
HCT-15 colon
  GI50: 337 nM
  TGI: 1660 nM
SNB-75 CNS
  GI50: 1190 nM
  TGI: 3130 nM
UO-31 renal
  GI50: 355 nM
  TGI: 1380 nM
IGROV1 ovarian
  GI50: 582 nM
  TGI: 2090 nM
UACC-62 melanoma
  GI50: 495 nM
  TGI: 2140 nM
OVCAR-4 ovarian
  GI50: 298 nM
  TGI: 952 nM
SK-MEL-28 melanoma
  GI50: 526 nM
  TGI: 1920 nM
T-47D breast
  GI50: 297 nM
  TGI: 1970 nM
A549 NSCLC
  GI50: 1880 nM
  TGI: 6030 nM
HOP-92 NSCLC
  GI50: 1020 nM
  TGI: 3060 nM
ACHN renal
  GI50: 327 nM
  TGI: 985 nM
